Results taken from patent publication US20190008440A1, “Method and device to investigate or treat painful neuropathy” (priority 2017, published 2019).

Tests used:
C fiber mediated pain = conditions: in vivo; cited from earlier work
A delta nociceptors = assay: Laser pin prick pain threshold (A delta fibers) of healthy volunteer after topical capsaicin; format: in vivo, human; conditions: beam 1 mm, 20 minutes after topical capsaicin on skin
Excerpt: The following is a description a typical test procedure utilizing the present invention with the application of protocol Example 1 for healthy volunteers and pain patients:
Step 1: Preparing volunteer for test. The volunteers were asked to respond to stimuli after each stimulus was applied, and describing the level and type of evoked sensation, location of sensation, how long the sensation lasts, whether the sensation was single (monomodal) or if more than one sensation were evoked by stimulation.
Step 2: The level of power of laser was adjusted to skin type of volunteer and irradiated spot was selected as close as possible to A-delta receptors.
Collimated beam with diameter 2 mm, within range of power 5.0-10.0 W and pulse duration 100 ms is applied to an investigated area of skin to determine the individual sensitivity and to map the location of A delta nociceptors. The power is increased with step 0.5 W until the first sensation is evoked. After that, the pulse power is fixed and the position of the irradiated spot is scanned (tuned) within an XY frame 5 mm×5 mm to find the location of the nociceptor and pulse power is applied for each new location with spatial steps of around 0.5 mm for fingertips.
The inter-stimulus time was at least 20 sec. The first appeared sensation was rated by the volunteer as barely pricking pain without any other sensations of warmth or hot pain.
After the location of receptors were determined, the summation curve—Power of Pain Threshold vs. Pulse Duration were measured by the following procedure: • 1) Collimated beam was adjusted to 1 mm, • 2) Duration of pulse set up to 50 ms and pulse power was increased from 2 W until volunteer reported about first appeared sensation. • 3) Afterwards, power was increased until volunteer reported that sensation became clearly painful, but decreasing of power of stimulus on 5-10% leads to the disappearance of pain. • 4) Afterward, the power threshold was measured for 50 ms pulse duration was increased by step 50 ms and procedure measurement of threshold was repeated. The increment of power was 0.1 W.
The healthy volunteer was tested with pulse durations from 50 ms to 300 ms and beam size of 1 mm. The volunteer reported what around 200-300 ms, they felt on the same level of power firstly warmth and after that pricking pain but for pulses within range 50-150 ms, only single (monomodal) pricking pain was discerned. The sensations were sharp and disappeared in a few seconds after stimulation. The next stimulus was applied not earlier than 20 sec or after the disappearance of painful sensation of previous stimulus.
The thresholds of pin prick pain of healthy volunteers were measured in 20 minutes after topical analgesic (capsaicin) was applied on skin. The Steps 2, 3 and 4 were repeated.

C fibers = assay: Laser threshold pulse duration for hot pain (stimulation of C fibers), hairy skin of left hand; format: in vivo, human
Experimental: Subjects: A chronic pain patient with hypersensitivity and a healthy volunteer were tested. Both subjects gave informed consent and the experiments were approved by the local institutional review board. The hairy skin of left hand was used for both volunteers. In preparing the subjects testing, they were asked to respond orally immediately after they perceived any threshold sensation and/or to interrupt lasing pulse by pressing STOP button. They then described the level and type of evoked sensation, location of sensation, how long the sensation lasted, whether the sensation was single (monomodal) sensation or if there were more than one evoked sensations by a single stimulation. Afterwards, the threshold pulse was applied 3 times to different areas with interval of {tilde over ( )}3 min or after the previous sensation (pain) had disappeared. The appearance redness was an indication of skin irritation.
Step 1: To test duration of pulse that evoked threshold warmth sensation only, the output power was set to 1.5 W, beam size adjusted to 5 mm. The pulse was applied to the skin. When the volunteer reported warmth (pain) sensation the lasing was stopped. […]
The laser radiation was stopped by volunteer. […] When this button was pushed the command “stop lasing” was activated, duration of applied pulse was measured and it was indicated on the screen of PC connected to the device by RS232 interface. […]

[1] = cited from earlier work
A delta and C fibers = assay: Skin biopsies processed with PGP 9.5 biomarker, integral fiber density of A delta and C fibers in epidermis and dermis; format: in vivo, human; conditions: biopsies 7 days after treatment with 8% capsaicin patch
Excerpt: In 7 days after treatment additional biopsies from laser and capsaicin treated areas together with control were taken and “blindly” processed with PGP 9.5 biomarker to determine the integral fiber density of the A delta and C fibers in epidermis and dermis.

Row | SMILES | inhibition of C fiber mediated pain vs A delta fiber mediated pain (C fiber mediated pain) | Power of Pain Thresholds of Healthy Volunteer (Capsaicin) (A delta nociceptors; pulse duration 50 ms, untreated healthy volunteer 9.5 W) [W] | Power of Pain Thresholds of Healthy Volunteer (Capsaicin) (A delta nociceptors; pulse duration 100 ms, untreated healthy volunteer 4.5 W) [W] | Power of Pain Thresholds of Healthy Volunteer (Capsaicin) (A delta nociceptors; pulse duration 150 ms, untreated healthy volunteer 3.2 W) [W] | Power of Pain Thresholds of Healthy Volunteer (Capsaicin) (A delta nociceptors; pulse duration 200 ms, untreated healthy volunteer 2.8 W) [W] | Power of Pain Thresholds of Healthy Volunteer (Capsaicin) (A delta nociceptors; pulse duration 300 ms, untreated healthy volunteer 2.5 W) [W] | threshold pulse duration, hot pain (C fibers; power 1.5 W, beam 5 mm, healthy volunteer affected topical capsaicin, stop button, untreated healthy volunteer 1300 ms) [ms] | effect on thresholds of warmth sensation and hot/burning pain (C fibers; topical capsaicin) | residual time ([1]; capsaicin solution used to stimulate neurogenic flare) | duration of capsaicin induced flare ([1]; in vivo) | residual time of capsaicin in the skin ([1]; patch application) [h] | fiber density below control (A delta and C fibers) [%]
1 | CN1CC[C@]23c4c5ccc(O)c4O[C@H]2[C@@H](O)C=C[C@H]3[C@H]1C5 [morphine] | much more effective in inhibiting C fiber mediated pain than A delta fiber mediated pain |  |  |  |  |  |  |  |  |  |  | 
2 | COc1cc(CNC(=O)CCCC/C=C/C(C)C)ccc1O [capsaicin] |  | 14.8 | 7.0 | 5 | 4.3 | 3.9 | 800 | decreases the thresholds of warmth sensation and hot/burning pain | over 48 hours | over several hours | 48 | 10 to 20
